Test results: the kinase profiling compilation of Christmann-Franck et al. (2016)

Tests used:
Assay in all cases: KINOMEscan competition binding
PAK6 (human) = PAK6 (human) (UniProt Q9NQU5)
TNK1 (human) = TNK1 (human) (UniProt Q13470)
PAK4 (human) = PAK4 (human) (UniProt O96013)
CAMK2G (human) = CAMK2G (human) (UniProt Q13555)
EPHA7 (human) = EPHA7 (human) (UniProt Q15375)
ERN1 (human) = ERN1 (human) (UniProt O75460)
MERTK (human) = MERTK (human) (UniProt Q12866)
SYK (human) = SYK (human) (UniProt P43405)
PDGFRA (human) = PDGFRA (human) (UniProt P16234)
TESK1 (human) = TESK1 (human) (UniProt Q15569)
LATS2 (human) = LATS2 (human) (UniProt Q9NRM7)
PDPK1 (human) = PDPK1 (human) (UniProt O15530)
Chain of PDPK1 (human) (O15530 whole entry, looked up): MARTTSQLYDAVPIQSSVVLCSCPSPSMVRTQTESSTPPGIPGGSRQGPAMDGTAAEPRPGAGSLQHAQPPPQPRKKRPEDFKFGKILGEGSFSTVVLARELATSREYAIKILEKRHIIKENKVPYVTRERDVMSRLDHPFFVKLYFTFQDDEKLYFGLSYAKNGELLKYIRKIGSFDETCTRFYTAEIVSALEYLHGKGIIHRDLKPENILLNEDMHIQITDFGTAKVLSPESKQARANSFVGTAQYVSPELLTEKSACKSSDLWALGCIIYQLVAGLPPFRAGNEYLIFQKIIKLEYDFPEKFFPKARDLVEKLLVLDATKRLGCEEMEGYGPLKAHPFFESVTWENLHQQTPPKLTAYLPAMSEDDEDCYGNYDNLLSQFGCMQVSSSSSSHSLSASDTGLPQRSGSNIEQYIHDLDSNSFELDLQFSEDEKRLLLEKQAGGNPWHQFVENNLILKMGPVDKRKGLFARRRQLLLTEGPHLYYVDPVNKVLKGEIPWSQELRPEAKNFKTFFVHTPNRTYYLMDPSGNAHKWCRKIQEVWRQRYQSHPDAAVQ

PKMYT1 (human) = PKMYT1 (human) (UniProt Q99640)
Chain of PKMYT1 (human) (Q99640 whole entry, looked up): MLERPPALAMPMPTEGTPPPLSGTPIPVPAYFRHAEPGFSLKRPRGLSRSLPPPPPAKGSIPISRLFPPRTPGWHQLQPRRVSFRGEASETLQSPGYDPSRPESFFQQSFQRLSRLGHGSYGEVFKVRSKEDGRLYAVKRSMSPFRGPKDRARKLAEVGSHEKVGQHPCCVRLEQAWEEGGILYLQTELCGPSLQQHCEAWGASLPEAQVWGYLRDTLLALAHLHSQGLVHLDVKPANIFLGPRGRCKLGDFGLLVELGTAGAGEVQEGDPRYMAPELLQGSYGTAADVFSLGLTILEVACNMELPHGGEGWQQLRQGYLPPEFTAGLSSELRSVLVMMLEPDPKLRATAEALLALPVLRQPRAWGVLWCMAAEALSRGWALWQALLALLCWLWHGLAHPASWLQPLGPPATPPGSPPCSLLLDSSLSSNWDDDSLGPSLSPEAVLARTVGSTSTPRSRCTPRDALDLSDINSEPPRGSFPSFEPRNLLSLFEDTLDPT

LIMK2 (human) = LIMK2 (human) (UniProt P53671)
RIPK1 (human) = RIPK1 (human) (UniProt Q13546)
EPHB2 (human) = EPHB2 (human) (UniProt P29323)
MST4 (human) = MST4 (human) (UniProt Q9P289)
PIP5K1C (human) = PIP5K1C (human) (UniProt O60331)
[1] = tested on: MET (human), P08581 [Y1235D]
[2] = tested on: FLT3 (human), P36888 [ITD]
MATK (human) = MATK (human) (UniProt P42679)
STK36 (human) = STK36 (human) (UniProt Q9NRP7)
TAOK3 (human) = TAOK3 (human) (UniProt Q9H2K8)
CSNK2A1 (human) = CSNK2A1 (human) (UniProt P68400)
PIP4K2C (human) = PIP4K2C (human) (UniProt Q8TBX8)
CDKL2 (human) = CDKL2 (human) (UniProt Q92772)
PTK6 (human) = PTK6 (human) (UniProt Q13882)
[3] = tested on: KIT (human), P10721 [D816H]
Chain of KIT (human), P10721 [D816H] (P10721 whole entry D816H, looked up): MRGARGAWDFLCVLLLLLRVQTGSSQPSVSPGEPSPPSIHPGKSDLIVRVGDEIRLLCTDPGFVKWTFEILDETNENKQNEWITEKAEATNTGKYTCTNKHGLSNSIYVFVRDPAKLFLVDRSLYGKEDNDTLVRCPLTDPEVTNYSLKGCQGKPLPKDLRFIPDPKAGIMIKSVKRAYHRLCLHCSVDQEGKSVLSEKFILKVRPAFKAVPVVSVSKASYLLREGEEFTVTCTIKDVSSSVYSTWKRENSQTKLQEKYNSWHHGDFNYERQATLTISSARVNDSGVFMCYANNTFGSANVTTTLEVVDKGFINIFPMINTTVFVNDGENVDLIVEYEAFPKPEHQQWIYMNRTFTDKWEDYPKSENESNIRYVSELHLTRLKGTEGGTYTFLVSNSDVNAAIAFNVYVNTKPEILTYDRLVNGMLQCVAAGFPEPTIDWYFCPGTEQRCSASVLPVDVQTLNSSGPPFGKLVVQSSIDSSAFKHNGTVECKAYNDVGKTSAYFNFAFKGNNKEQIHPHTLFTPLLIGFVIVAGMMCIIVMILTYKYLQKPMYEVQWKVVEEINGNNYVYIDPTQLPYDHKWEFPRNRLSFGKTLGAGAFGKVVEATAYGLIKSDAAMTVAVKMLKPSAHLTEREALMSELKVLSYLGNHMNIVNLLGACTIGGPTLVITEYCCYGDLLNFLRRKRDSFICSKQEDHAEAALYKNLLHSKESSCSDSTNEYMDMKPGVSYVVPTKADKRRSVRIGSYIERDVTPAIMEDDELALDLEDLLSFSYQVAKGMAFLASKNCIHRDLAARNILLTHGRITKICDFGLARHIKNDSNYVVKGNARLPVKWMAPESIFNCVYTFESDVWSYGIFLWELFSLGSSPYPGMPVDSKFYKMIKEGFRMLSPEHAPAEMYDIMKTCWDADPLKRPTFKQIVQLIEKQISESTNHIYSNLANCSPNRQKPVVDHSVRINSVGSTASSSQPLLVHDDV

AXL (human) = AXL (human) (UniProt P30530)
Chain of AXL (human) (P30530 whole entry, looked up): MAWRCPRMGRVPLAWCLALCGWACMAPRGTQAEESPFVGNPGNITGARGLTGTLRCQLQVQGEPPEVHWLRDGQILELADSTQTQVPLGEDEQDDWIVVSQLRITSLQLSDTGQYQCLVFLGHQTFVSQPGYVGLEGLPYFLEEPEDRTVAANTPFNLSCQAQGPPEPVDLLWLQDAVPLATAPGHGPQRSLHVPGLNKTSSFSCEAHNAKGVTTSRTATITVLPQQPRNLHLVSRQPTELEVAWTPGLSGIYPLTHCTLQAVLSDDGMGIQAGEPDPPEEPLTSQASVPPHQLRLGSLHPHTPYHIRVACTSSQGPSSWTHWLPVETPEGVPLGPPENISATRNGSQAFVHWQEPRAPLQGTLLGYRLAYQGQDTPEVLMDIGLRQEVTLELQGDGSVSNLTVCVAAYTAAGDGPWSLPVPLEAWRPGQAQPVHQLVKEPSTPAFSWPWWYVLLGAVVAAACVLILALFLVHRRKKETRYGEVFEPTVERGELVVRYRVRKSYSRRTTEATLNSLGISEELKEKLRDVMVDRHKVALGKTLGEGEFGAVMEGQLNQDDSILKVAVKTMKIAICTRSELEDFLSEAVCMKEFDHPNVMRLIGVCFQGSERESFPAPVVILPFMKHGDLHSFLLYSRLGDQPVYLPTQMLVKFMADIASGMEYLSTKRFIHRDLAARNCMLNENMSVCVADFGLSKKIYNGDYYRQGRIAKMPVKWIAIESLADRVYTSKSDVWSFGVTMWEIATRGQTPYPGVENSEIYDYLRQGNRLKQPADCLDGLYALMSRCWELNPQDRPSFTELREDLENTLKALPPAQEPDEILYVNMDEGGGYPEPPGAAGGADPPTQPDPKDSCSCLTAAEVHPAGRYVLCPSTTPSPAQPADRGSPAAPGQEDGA

WEE2 (human) = WEE2 (human) (UniProt P0C1S8)
PLK4 (human) = PLK4 (human) (UniProt O00444)
Chain of PLK4 (human) (O00444 whole entry, looked up): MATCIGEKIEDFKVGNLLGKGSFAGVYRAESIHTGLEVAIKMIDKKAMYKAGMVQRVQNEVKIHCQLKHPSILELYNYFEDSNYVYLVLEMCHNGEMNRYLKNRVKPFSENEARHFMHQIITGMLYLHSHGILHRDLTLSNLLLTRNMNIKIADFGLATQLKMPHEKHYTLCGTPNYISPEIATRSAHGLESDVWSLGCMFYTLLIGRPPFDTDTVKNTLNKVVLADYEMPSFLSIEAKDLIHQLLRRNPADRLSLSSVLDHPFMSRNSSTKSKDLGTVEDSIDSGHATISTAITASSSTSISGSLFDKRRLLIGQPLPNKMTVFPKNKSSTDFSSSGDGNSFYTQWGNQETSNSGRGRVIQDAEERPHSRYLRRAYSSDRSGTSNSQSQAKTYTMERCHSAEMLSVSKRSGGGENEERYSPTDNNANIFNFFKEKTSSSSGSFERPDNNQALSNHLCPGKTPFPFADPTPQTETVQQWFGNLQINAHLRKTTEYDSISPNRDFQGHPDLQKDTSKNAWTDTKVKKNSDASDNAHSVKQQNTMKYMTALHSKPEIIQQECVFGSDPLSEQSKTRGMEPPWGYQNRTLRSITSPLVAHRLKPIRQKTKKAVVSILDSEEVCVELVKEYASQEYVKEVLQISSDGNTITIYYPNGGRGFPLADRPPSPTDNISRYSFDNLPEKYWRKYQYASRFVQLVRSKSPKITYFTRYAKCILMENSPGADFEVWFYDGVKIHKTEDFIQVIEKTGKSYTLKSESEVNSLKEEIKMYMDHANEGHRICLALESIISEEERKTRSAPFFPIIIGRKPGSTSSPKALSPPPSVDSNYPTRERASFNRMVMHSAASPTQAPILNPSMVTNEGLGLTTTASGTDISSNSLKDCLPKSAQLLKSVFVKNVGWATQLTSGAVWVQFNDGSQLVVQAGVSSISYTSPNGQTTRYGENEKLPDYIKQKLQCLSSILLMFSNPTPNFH

AKT1 (human) = AKT1 (human) (UniProt P31749)
PRKG1 (human) = PRKG1 (human) (UniProt Q13976)
DAPK2 (human) = DAPK2 (human) (UniProt Q9UIK4)
Chain of DAPK2 (human) (Q9UIK4 whole entry, looked up): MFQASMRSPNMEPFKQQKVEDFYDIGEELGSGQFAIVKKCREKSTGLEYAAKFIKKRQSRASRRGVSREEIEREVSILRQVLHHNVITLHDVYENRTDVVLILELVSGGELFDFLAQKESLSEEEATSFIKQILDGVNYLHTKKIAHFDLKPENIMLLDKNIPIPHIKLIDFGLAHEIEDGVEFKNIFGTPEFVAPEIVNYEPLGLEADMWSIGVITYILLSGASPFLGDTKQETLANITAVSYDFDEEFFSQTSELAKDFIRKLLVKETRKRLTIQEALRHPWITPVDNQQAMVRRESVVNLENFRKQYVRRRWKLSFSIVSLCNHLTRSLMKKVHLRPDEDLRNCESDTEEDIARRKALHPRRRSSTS

CSNK1G2 (human) = CSNK1G2 (human) (UniProt P78368)
MAP3K7 (human) = MAP3K7 (human) (UniProt O43318)
GRK1 (human) = GRK1 (human) (UniProt Q15835)
PRKACA (human) = PRKACA (human) (UniProt P17612)
MUSK (human) = MUSK (human) (UniProt O15146)
PIK3CA (human) = PIK3CA (human) (UniProt P42336)
[4] = tested on: ABL1 (human), P00519 [Y253F]
[5] = tested on: KIT (human), P10721 [D816V]
Chain of KIT (human), P10721 [D816V] (P10721 whole entry D816V, looked up): as the sequence (P10721 whole entry D816H, looked up) above, with H816V counted along it

PI4KB (human) = PI4KB (human) (UniProt Q9UBF8)

Chain of TNK1 (human) (Q13470 whole entry, looked up): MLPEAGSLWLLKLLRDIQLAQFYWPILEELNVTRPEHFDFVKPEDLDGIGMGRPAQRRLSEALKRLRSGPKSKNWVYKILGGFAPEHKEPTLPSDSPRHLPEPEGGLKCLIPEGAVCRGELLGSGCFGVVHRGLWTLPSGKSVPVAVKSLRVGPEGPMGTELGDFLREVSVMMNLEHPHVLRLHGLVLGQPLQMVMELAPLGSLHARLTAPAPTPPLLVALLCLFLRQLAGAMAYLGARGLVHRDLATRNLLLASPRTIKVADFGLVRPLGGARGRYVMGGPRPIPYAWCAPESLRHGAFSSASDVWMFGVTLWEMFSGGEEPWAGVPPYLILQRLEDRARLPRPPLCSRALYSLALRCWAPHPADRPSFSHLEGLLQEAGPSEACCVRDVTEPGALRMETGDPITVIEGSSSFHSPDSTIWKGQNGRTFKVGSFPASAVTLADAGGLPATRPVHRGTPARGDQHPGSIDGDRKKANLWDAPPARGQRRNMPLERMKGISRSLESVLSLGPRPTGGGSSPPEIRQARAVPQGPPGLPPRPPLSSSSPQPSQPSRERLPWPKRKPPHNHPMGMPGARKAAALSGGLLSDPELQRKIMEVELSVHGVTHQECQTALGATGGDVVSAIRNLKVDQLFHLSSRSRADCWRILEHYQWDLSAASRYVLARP

CN(C)C/C=C/C(=O)Nc1cccc(C(=O)Nc2ccc(Nc3nccc(-c4c(-c5ccccc5)nn5ccccc45)n3)cc2)c1
kinase still bound, per cent of control (PAK6 (human); compound 1.0 µM): 100% | kinase still bound, per cent of control (TNK1 (human); compound 1.0 µM): 100% | kinase still bound, per cent of control (PAK4 (human); compound 1.0 µM): 91% | kinase still bound, per cent of control (CAMK2G (human); compound 1.0 µM): 100% | kinase still bound, per cent of control (EPHA7 (human); compound 1.0 µM): 100% | kinase still bound, per cent of control (ERN1 (human); compound 1.0 µM): 100% | kinase still bound, per cent of control (MERTK (human); compound 1.0 µM): 49% | kinase still bound, per cent of control (SYK (human); compound 1.0 µM): 82% | kinase still bound, per cent of control (PDGFRA (human); compound 1.0 µM): 4.4% | kinase still bound, per cent of control (TESK1 (human); compound 1.0 µM): 99% | kinase still bound, per cent of control (LATS2 (human); compound 1.0 µM): 78% | kinase still bound, per cent of control (PDPK1 (human); compound 1.0 µM): 100% | kinase still bound, per cent of control (PKMYT1 (human); compound 1.0 µM): 100% | kinase still bound, per cent of control (LIMK2 (human); compound 1.0 µM): 100% | kinase still bound, per cent of control (RIPK1 (human); compound 1.0 µM): 73% | kinase still bound, per cent of control (EPHB2 (human); compound 1.0 µM): 67% | kinase still bound, per cent of control (MST4 (human); compound 1.0 µM): 85% | kinase still bound, per cent of control (PIP5K1C (human); compound 1.0 µM): 87% | kinase still bound, per cent of control ([1]; compound 1.0 µM): 59% | kinase still bound, per cent of control ([2]; compound 1.0 µM): 11% | kinase still bound, per cent of control (MATK (human); compound 1.0 µM): 100% | kinase still bound, per cent of control (STK36 (human); compound 1.0 µM): 2.2% | kinase still bound, per cent of control (TAOK3 (human); compound 1.0 µM): 42% | kinase still bound, per cent of control (CSNK2A1 (human); compound 1.0 µM): 74% | kinase still bound, per cent of control (PIP4K2C (human); compound 1.0 µM): 86% | kinase still bound, per cent of control (CDKL2 (human); compound 1.0 µM): 74% | kinase still bound, per cent of control (PTK6 (human); compound 1.0 µM): 82% | kinase still bound, per cent of control ([3]; compound 1.0 µM): 86% | kinase still bound, per cent of control (AXL (human); compound 1.0 µM): 58% | kinase still bound, per cent of control (WEE2 (human); compound 1.0 µM): 100% | kinase still bound, per cent of control (PLK4 (human); compound 1.0 µM): 92% | kinase still bound, per cent of control (AKT1 (human); compound 1.0 µM): 100% | kinase still bound, per cent of control (PRKG1 (human); compound 1.0 µM): 90% | kinase still bound, per cent of control (DAPK2 (human); compound 1.0 µM): 97% | kinase still bound, per cent of control (CSNK1G2 (human); compound 1.0 µM): 0.85% | kinase still bound, per cent of control (MAP3K7 (human); compound 1.0 µM): 47% | kinase still bound, per cent of control (GRK1 (human); compound 1.0 µM): 100% | kinase still bound, per cent of control (PRKACA (human); compound 1.0 µM): 99% | kinase still bound, per cent of control (MUSK (human); compound 1.0 µM): 100% | kinase still bound, per cent of control (PIK3CA (human); compound 1.0 µM): 99% | kinase still bound, per cent of control ([4]; compound 1.0 µM): 1.6% | kinase still bound, per cent of control ([5]; compound 1.0 µM): 33% | kinase still bound, per cent of control (PI4KB (human); compound 1.0 µM): 69%

Cc1ccc(NC(=O)c2ccc(NC(=O)/C=C/CN(C)C)cc2)cc1Nc1nccc(-c2cccnc2)n1
kinase still bound, per cent of control (PAK6 (human); compound 10.0 µM): 45% | kinase still bound, per cent of control (TNK1 (human); compound 10.0 µM): 8.7% | kinase still bound, per cent of control (PAK4 (human); compound 10.0 µM): 84% | kinase still bound, per cent of control (CAMK2G (human); compound 10.0 µM): 95% | kinase still bound, per cent of control (EPHA7 (human); compound 10.0 µM): 99% | kinase still bound, per cent of control (ERN1 (human); compound 10.0 µM): 98% | kinase still bound, per cent of control (MERTK (human); compound 10.0 µM): 81% | kinase still bound, per cent of control (SYK (human); compound 10.0 µM): 62% | kinase still bound, per cent of control (PDGFRA (human); compound 10.0 µM): 0.4% | kinase still bound, per cent of control (TESK1 (human); compound 10.0 µM): 100% | kinase still bound, per cent of control (LATS2 (human); compound 10.0 µM): 100% | kinase still bound, per cent of control (PDPK1 (human); compound 10.0 µM): 100% | kinase still bound, per cent of control (PKMYT1 (human); compound 10.0 µM): 79% | kinase still bound, per cent of control (LIMK2 (human); compound 10.0 µM): 78% | kinase still bound, per cent of control (RIPK1 (human); compound 10.0 µM): 56% | kinase still bound, per cent of control (EPHB2 (human); compound 10.0 µM): 100% | kinase still bound, per cent of control (MST4 (human); compound 10.0 µM): 53% | kinase still bound, per cent of control (PIP5K1C (human); compound 10.0 µM): 90% | kinase still bound, per cent of control ([1]; compound 10.0 µM): 100% | kinase still bound, per cent of control ([2]; compound 10.0 µM): 46% | kinase still bound, per cent of control (MATK (human); compound 10.0 µM): 45% | kinase still bound, per cent of control (STK36 (human); compound 10.0 µM): 100% | kinase still bound, per cent of control (TAOK3 (human); compound 10.0 µM): 19% | kinase still bound, per cent of control (CSNK2A1 (human); compound 10.0 µM): 11% | kinase still bound, per cent of control (PIP4K2C (human); compound 10.0 µM): 2% | kinase still bound, per cent of control (CDKL2 (human); compound 10.0 µM): 100% | kinase still bound, per cent of control (PTK6 (human); compound 10.0 µM): 85% | kinase still bound, per cent of control ([3]; compound 10.0 µM): 29% | kinase still bound, per cent of control (AXL (human); compound 10.0 µM): 90% | kinase still bound, per cent of control (WEE2 (human); compound 10.0 µM): 100% | kinase still bound, per cent of control (PLK4 (human); compound 10.0 µM): 41% | kinase still bound, per cent of control (AKT1 (human); compound 10.0 µM): 100% | kinase still bound, per cent of control (PRKG1 (human); compound 10.0 µM): 97% | kinase still bound, per cent of control (DAPK2 (human); compound 10.0 µM): 82% | kinase still bound, per cent of control (CSNK1G2 (human); compound 10.0 µM): 83% | kinase still bound, per cent of control (MAP3K7 (human); compound 10.0 µM): 61% | kinase still bound, per cent of control (GRK1 (human); compound 10.0 µM): 100% | kinase still bound, per cent of control (PRKACA (human); compound 10.0 µM): 100% | kinase still bound, per cent of control (MUSK (human); compound 10.0 µM): 99% | kinase still bound, per cent of control (PIK3CA (human); compound 10.0 µM): 100% | kinase still bound, per cent of control ([4]; compound 10.0 µM): 39% | kinase still bound, per cent of control ([5]; compound 10.0 µM): 38% | kinase still bound, per cent of control (PI4KB (human); compound 10.0 µM): 40%
